Assay results: patent US10363257B2 (ZENITH EPIGENETICS LTD., priority 2013, dated 2019)

Each compound was assayed against T1, Brd4 bromodomain 1 (BRD4(1)) (Homo sapiens, UniProt O60885) (assay: Inhibition of tetra-acetylated histone H4 binding to Brd4 bromodomain 1 (TR-FRET)). Conditions: tetra-acetylated histone H4 peptide, first bromodomain of Brd4.
T1 construct: made in house; host or cells: E. coli BL21(DE3)
Method: Proteins were cloned and overexpressed with a N-terminal 6× His tag, then purified by nickel affinity followed by size exclusion chromatography. Briefly, E.coli BL21(DE3) cells were transformed with a recombinant expression vector encoding N-terminally Nickel affinity tagged bromodomains from Brd2, Brd3, Brd4. Cell cultures were incubated at 37° C. with shaking to the appropriate density and induced overnight with IPTG. The supernatant of lysed cells was loaded onto Ni-IDA column for purification. Eluted protein was pooled, concentrated and further purified by size exclusion chromatography. Fractions representing monomeric protein were pooled, concentrated, aliquoted, and frozen at −80° C. for use in subsequent experiments.
Binding of tetra-acetylated histone H4 and BET bromodomains was confirmed by a Time Resolved Fluorescence Resonance Energy Transfer (TR-FRET) method. N-terminally His-tagged bromodomains (200 nM) and biotinylated tetra-acetylated histone H4 peptide (25-50 nM, Millipore) were incubated in the presence of Europium Cryptate-labeled streptavidin (Cisbio Cat. #610SAKLB) and XL665-labeled monoclonal anti-His antibody (Cisbio Cat. #61HISXLB) in a white 96 well microtiter plate (Greiner). For inhibition assays, serially diluted test compound was added to these reactions in a 0.2% final concentration of DMSO. Final buffer concentrations were 30 mM HEPES pH 7.4, 30 mM NaCl, 0.3 mM CHAPS, 20 mM phosphate pH 7.0, 320 mM KF, 0.08% BSA). After a 2-h incubation at room temperature, the fluorescence by FRET was measured at 665 and 620 nm by a SynergyH4 plate reader (Biotek). The binding inhibitory activity was shown by a decrease in 665 nm fluorescence relative to 620 nm. IC50 values were determined from a dose response curve.
`Cc1noc(C)c1-c1cc(Br)c2nc(C)n(CCOc3ccccc3)c2c1` [compound 189, 4-(4-bromo-2-methyl-1-(2-phenoxyethyl)-1H-benzo[d]imidazol-6-yl)-3,5-dimethylisoxazole] showed an IC50 of 0.3 to 3 µM. `Cc1noc(C)c1-c1cnc2nc(NC3CCN(C)CC3)n(Cc3ccccc3)c2c1` [compound 235, 1-benzyl-6-(3,5-dimethylisoxazol-4-yl)-N-(1-methylpiperidin-4-yl)-1H-imidazo[4,5-b]pyridin-2-amine] gave an IC50 of at most 0.3 µM. `Cc1noc(C)c1-c1cnc2nc(NC3CCC(N)CC3)n(Cc3ccccc3)c2c1` (stereo not shown) [compound 224, N1-(1-benzyl-6-(3,5-dimethylisoxazol-4-yl)-1H-imidazo[4,5-b]pyridin-2-yl)cyclohexane-1,4-diamine] gave an IC50 of at most 0.3 µM. `Cc1noc(C)c1-c1cc([N+](=O)[O-])c2nc(NCc3ccccc3)n(Cc3ccccc3)c2c1` [compound 147, N,1-dibenzyl-6-(3,5-dimethylisoxazol-4-yl)-4-nitro-1H-benzo[d]imidazol-2-amine] was tested, and the IC50 was at most 0.3 µM. In the case of `Cc1noc(C)c1-c1cnc2nc(NC3COC3)n(Cc3ccccc3)c2c1` [compound 227, 1-benzyl-6-(3,5-dimethylisoxazol-4-yl)-N-(oxetan-3-yl)-1H-imidazo[4,5-b]pyridin-2-amine], the IC50 is reported as at most 0.3 µM. `Cc1noc(C)c1-c1cnc2nc(Oc3cccnc3)n(Cc3ccccc3)c2c1` [compound 236, 4-(1-benzyl-2-(pyridin-3-yloxy)-1H-imidazo[4,5-b]pyridin-6-yl)-3,5-dimethylisoxazole] was tested, and the IC50 was at most 0.3 µM. For `COCCCNc1nc2ncc(-c3c(C)noc3C)cc2n1Cc1ccccc1` [compound 226, 1-benzyl-6-(3,5-dimethylisoxazol-4-yl)-N-(3-methoxypropyl)-1H-imidazo[4,5-b]pyridin-2-amine], the IC50 was at most 0.3 µM. With `CNc1nc2ncc(-c3c(C)noc3C)cc2n1Cc1ccc(Cl)cc1` [compound 233, 1-(4-chlorobenzyl)-6-(3,5-dimethylisoxazol-4-yl)-N-methyl-1H-imidazo[4,5-b]pyridin-2-amine] the IC50 was at most 0.3 µM. `Cc1noc(C)c1-c1cnc2nc(NCCN3CCN(C)CC3)n(Cc3ccccc3)c2c1` [compound 231, 1-benzyl-6-(3,5-dimethylisoxazol-4-yl)-N-(2-(4-methylpiperazin-1-yl)ethyl)-1H-imidazo[4,5-b]pyridin-2-amine] was tested, and the IC50 was at most 0.3 µM. `Cc1noc(C)c1-c1cnc2nc(NCCN3CCCCC3)n(Cc3ccccc3)c2c1` [compound 239, 1-benzyl-6-(3,5-dimethylisoxazol-4-yl)-N-(2-(piperidin-1-yl)ethyl)-1H-imidazo[4,5-b]pyridin-2-amine] was tested, and the IC50 was at most 0.3 µM. In the case of `CNc1nc2ncc(-c3c(C)noc3C)cc2n1Cc1ccc(F)cc1` [compound 232, 6-(3,5-dimethylisoxazol-4-yl)-1-(4-fluorobenzyl)-N-methyl-1H-imidazo[4,5-b]pyridin-2-amine], the IC50 is reported as at most 0.3 µM. Compound `Cc1noc(C)c1-c1cc([N+](=O)[O-])c2[nH]c(=O)n([C@H](C)c3ccccc3)c2c1` [compound 240, (R)-6-(3,5-dimethylisoxazol-4-yl)-4-nitro-1-(1-phenylethyl)-1H-benzo[d]imidazol-2(3H)-one] has an IC50 of at most 0.3 µM. Compound `Cn1nccc1-c1ccc2c(c1)N(Cc1ccccc1)CC(=O)N2` [compound 166, 4-benzyl-6-(1-methyl-1H-pyrazol-5-yl)-3,4-dihydroquinoxalin-2(1H)-one] has an IC50 of 0.3 to 3 µM. With `Cc1noc(C)c1-c1cnc2nc(NC3CCCCC3)n(Cc3ccccc3)c2c1` [compound 234, 1-benzyl-N-cyclohexyl-6-(3,5-dimethylisoxazol-4-yl)-1H-imidazo[4,5-b]pyridin-2-amine] the IC50 was at most 0.3 µM. In the case of `Cc1noc(C)c1-c1cc(Br)c2nc(C)n(CCCc3ccccc3)c2c1` [compound 187, 4-(4-bromo-2-methyl-1-(3-phenylpropyl)-1H-benzo[d]imidazol-6-yl)-3,5-dimethylisoxazole], the IC50 is reported as 0.3 to 3 µM. `Cc1noc(C)c1-c1cc(Br)c2c(c1)nc(C)n2CCCc1ccccc1` [compound 188, 4-(7-bromo-2-methyl-1-(3-phenylpropyl)-1H-benzo[d]imidazol-5-yl)-3,5-dimethylisoxazole] was tested, and the IC50 was 3 to 30 µM. For `Cc1noc(C)c1-c1cnc2nc(NCc3cnccn3)n(Cc3ccccc3)c2c1` [compound 229, 1-benzyl-6-(3,5-dimethylisoxazol-4-yl)-N-(pyrazin-2-ylmethyl)-1H-imidazo[4,5-b]pyridin-2-amine], the IC50 was at most 0.3 µM. For `Cc1noc(C)c1-c1cnc2nc(NCC3CCOCC3)n(Cc3ccccc3)c2c1` [compound 230, 1-benzyl-6-(3,5-dimethylisoxazol-4-yl)-N-((tetrahydro-2H-pyran-4-yl)methyl)-1H-imidazo[4,5-b]pyridin-2-amine], the IC50 was at most 0.3 µM. `Cc1noc(C)c1-c1cnc2nc(NCCN3CCCC3)n(Cc3ccccc3)c2c1` [compound 238, 1-benzyl-6-(3,5-dimethylisoxazol-4-yl)-N-(2-(pyrrolidin-1-yl)ethyl)-1H-imidazo[4,5-b]pyridin-2-amine] was tested, and the IC50 was at most 0.3 µM. With `Cc1noc(C)c1-c1cnc2[nH]c(=O)n(Cc3ccc(Cl)c(Cl)c3)c2c1` [compound 101, 1-(3,4-dichlorobenzyl)-6-(3,5-dimethylisoxazol-4-yl)-1H-imidazo[4,5-b]pyridin-2(3H)-one] the IC50 was 0.3 to 3 µM. `Cn1nccc1-c1cnc2nc(N3CCOCC3)n(Cc3ccccc3)c2c1` [compound 175, 4-(1-benzyl-6-(1-methyl-1H-pyrazol-5-yl)-1H-imidazo[4,5-b]pyridin-2-yl)morpholine] gave an IC50 of 0.3 to 3 µM. `Cc1noc(C)c1-c1cc(Br)c2c(c1)nc(C)n2CCOc1ccccc1` [compound 190, 4-(7-bromo-2-methyl-1-(2-phenoxyethyl)-1H-benzo[d]imidazol-5-yl)-3,5-dimethylisoxazole] gave an IC50 of 0.3 to 3 µM. With `Cc1noc(C)c1-c1cnc2nc(NCC(C)(C)O)n(Cc3ccccc3)c2c1` [compound 237, 1-((1-benzyl-6-(3,5-dimethylisoxazol-4-yl)-1H-imidazo[4,5-b]pyridin-2-yl)amino)-2-methylpropan-2-ol] the IC50 was at most 0.3 µM. `CC(=O)Nc1cc(-c2ccnn2C)cc2c1n(C)c(=O)n2Cc1ccccc1` [compound 204, N-(1-benzyl-3-methyl-6-(1-methyl-1H-pyrazol-5-yl)-2-oxo-2,3-dihydro-1H-benzo[d]imidazol-4-yl)acetamide] showed an IC50 of 0.3 to 3 µM. `Cc1nn(C)c(C)c1-c1cc(N)c2nc(C)n(Cc3ccccc3)c2c1` [compound 184, 1-benzyl-2-methyl-6-(1,3,5-trimethyl-1H-pyrazol-4-yl)-1H-benzo[d]imidazol-4-amine] was tested, and the IC50 was 3 to 30 µM. For `COc1c(-c2c(C)noc2C)ccc2nc(C(F)(F)F)n(Cc3ccccc3)c12` [compound 241, 4-(1-benzyl-7-methoxy-2-(trifluoromethyl)-1H-benzo[d]imidazol-6-yl)-3,5-dimethylisoxazole], the IC50 was 0.3 to 3 µM. In the case of `Cc1noc(C)c1-c1cnc2nc(NCC3CCCCC3)n(Cc3ccccc3)c2c1` [compound 225, 1-benzyl-N-(cyclohexylmethyl)-6-(3,5-dimethylisoxazol-4-yl)-1H-imidazo[4,5-b]pyridin-2-amine], the IC50 is reported as at most 0.3 µM. Work on `Cc1noc(C)c1-c1cnc2[nH]c(=O)n(Cc3ccc(F)cc3)c2c1` [compound 228, 6-(3,5-dimethylisoxazol-4-yl)-1-(4-fluorobenzyl)-1H-imidazo[4,5-b]pyridin-2(3H)-one] yielded an IC50 of at most 0.3 µM.
